Read-outs that look alike come from different tables or passages of the source.
Columns and labels:
HCT116 WT = test: Proliferation of HCT116 colorectal cell line, Cell TiterGlo; type: cell-based, human
How it was run: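 HCT116 colorectal cells, wild type, GCN2 CRISPR knockout, or wild type plus ISRIB; proliferation read by CellTiter-Glo luminescence. 10-point dose response in triplicate, IC50 reported; multiple values are independent experiments.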

HCT116 GCN2KO = test: Proliferation of HCT116 cells with GCN2 knocked out (CRISPR), Cell TiterGlo; type: cell-based, human; conditions: Homo sapiens
Procedure: Briefly, compounds were tested for their effect on proliferation of HCT116 colorectal cell lines using Cell TiterGlo (Promega). Each compound was tested in a 10-point dose response experiment in triplicate. Multiple values in the column titled HCT116 WT reflect separate independent experiments. The three columns titled “HCT116 WT (repeat)”, “HCT116-CGN2KO” and “HCT116 WT+ISRIB” provide data for selected compounds that were tested simultaneously under three conditions. The HCT116 WT column lists IC50 against the wild type HCT116 colorectal cancer cell line. The HCT116-CGN2KO lists IC50 data for cells in which one component of the integrated stress response, GCN2, has been knocked out using CRISPR technology.

[1] = Homo sapiens, HCT-116, wild type HCT116, 10-point dose response in triplicate, multiple values = separate independent experiments, read-out: HCT116 IC50 (uM) HCT116 WT
[2] = Homo sapiens, HCT-116, wild type HCT116, tested simultaneously with GCN2KO and +ISRIB, read-out: HCT116 IC50 (uM) HCT116 WT (repeat)
[3] = wild type HCT116, compound plus 10 nM of ISRIB, read-out: HCT116 IC50 (uM) HCT116 WT + ISRIB
[4] = HCT-116, HCT116 cells with GCN2 knocked out using CRISPR, read-out: HCT116 IC50 (uM) HCT116 − GCN2KO

Row | Structure (SMILES) | IC50 (HCT116 WT; [1]) [µM] | IC50 (HCT116 WT; [2]) [µM] | IC50 (HCT116 WT; [3]) [µM] | IC50 (HCT116 GCN2KO; [4]) [µM] | HCT116 IC50 (uM) HCT116 WT (HCT116 WT; wild type HCT116, 10-point dose response in triplicate, multiple values = separate independent experiments) | IC50 (HCT116 WT; Homo sapiens, HCT-116, read-out: HCT116 IC50 (uM) HCT116 WT) [µM] | IC50 (HCT116 WT; Homo sapiens, HCT-116, read-out: HCT116 IC50 (uM) HCT116 WT (repeat)) [µM] | IC50 (HCT116 WT; read-out: HCT116 IC50 (uM) HCT116 WT + ISRIB, wild type HCT116, compound plus 10 nM of ISRIB) [µM] | IC50 (HCT116 GCN2KO; HCT-116, read-out: HCT116 IC50 (uM) HCT116 − GCN2KO) [µM]
1 | Cn1nc(-c2ccc(NC(=O)c3ccccc3)cc2)cc1NC(=O)c1cccc(Cl)c1 [SW389161, N-(3-(4-benzamidophenyl)-1-methyl-1H-pyrazol-5-yl)-3-chlorobenzamide] | 1.27 | 1.06 | 8.26 | 11.7 |  |  |  |  | 
2 | Cn1nc(-c2ccc(NC(=O)c3ccccc3)cc2)cc1NC(=O)c1cccc(Br)c1 [SW389162, N-(3-(4-benzamidophenyl)-1-methyl-1H-pyrazol-5-yl)-3-bromobenzamide] | 0.335 | 0.32 | 2.6 | 3.14 |  |  |  |  | 
3 | Cn1nc(-c2ccc(NC(=O)c3ccc(C#N)cc3)cc2)cc1NC(=O)c1ccccc1 [SW393061, N-(4-(5-benzamido-1-methyl-1H-pyrazol-3-yl)phenyl)-4-cyanobenzamide] |  | ≥ 50 |  | ≥ 50 | inactive |  |  |  | 
4 | Cn1nc(-c2ccc(NC(=O)c3cccc(Cl)c3)cc2)cc1NC(=O)c1ccccc1 [SW393062, N-(4-(5-benzamido-1-methyl-1H-pyrazol-3-yl)phenyl)-3-chlorobenzamide] | 2.1 | 2.37 | 8.72 | 10.5 |  |  |  |  | 
5 | Cn1nc(-c2ccc(NC(=O)c3ccncc3)cc2)cc1NC(=O)c1ccccc1 [SW393063, N-(4-(5-benzamido-1-methyl-1H-pyrazol-3-yl)phenyl)isonicotinamide] | 3.2 | 2.04 | 3.1 | 3.69 |  |  |  |  | 
6 | C#CCOc1cccc(C(=O)Nc2ccc(-c3cc(NC(=O)c4ccc(N=[N+]=[N-])cc4)n(C)n3)cc2)c1 [SW393065, N-(4-(5-(4-Azidobenzamido)-1-methyl-1H-pyrazol-3-yl)phenyl)-3-(prop-2-yn-1-yloxy)benza-mide] | 3 | 3.73 | 3.26 | 3.23 |  |  |  |  | 
7 | COC(=O)c1cccc(C(=O)Nc2ccc(-c3cc(NC(=O)c4ccccc4)n(C)n3)cc2)c1 [SW393068, methyl 3-((4-(5-benzamido-1-methyl-1H-pyrazol-3-yl)phenyl)carbamoyl)benzoate] | 8.3 | 13.6 |  | 47 |  |  |  |  | 
8 | Cn1nc(-c2ccc(NC(=O)c3cccc(C#N)c3)cc2)cc1NC(=O)c1ccccc1 [SW393069, N-(4-(5-benzamido-1-methyl-1H-pyrazol-3-yl)phenyl)-3-cyanobenzamide] | 17 | 7.43 | 12.7 | 15.2 |  |  |  |  | 
9 | Cn1nc(-c2ccc(NS(=O)(=O)c3ccccc3)cc2)cc1NC(=O)c1ccccc1 [SW393070, N-(1-methyl-3-(4-(phenylsulfonamido)phenyl)-1H-pyrazol-5-yl)benzamide] | 16 | 9.06 | 23.3 | 22 |  |  |  |  | 
10 | Cn1nc(-c2ccc(NC(=O)c3ccc(Cl)cc3)cc2)cc1NC(=O)c1ccccc1 [SW393072, N-(4-(5-benzamido-1-methyl-1H-pyrazol-3-yl)phenyl)-4-chlorobenzamide] | 3.3 | 2.83 | 13.8 | 11.1 |  |  |  |  | 
11 | COC(=O)c1ccc(C(=O)Nc2ccc(-c3cc(NC(=O)c4ccccc4)n(C)n3)cc2)cc1 [SW393073, methyl 4-((4-(5-benzamido-1-methyl-1H-pyrazol-3-yl)phenyl)carbamoyl)benzoate] | 14 | 8 |  | ≥ 50 |  |  |  |  | 
12 | Cn1nc(-c2ccc(NC(=O)c3ccccc3C(F)(F)F)cc2)cc1NC(=O)c1ccccc1 [SW393124, N-(4-(5-benzamido-1-methyl-1H-pyrazol-3-yl)phenyl)-2-(trifluoromethyl)benzamide] | 0.008 | 0.02 | 0.09 | 0.08 |  |  |  |  | 
13 | C#CCOc1cccc(C(=O)Nc2cc(-c3ccc(NC(=O)c4ccccc4Cl)cc3)nn2C)c1 [SW393125, 2-Chloro-N-(4-(1-methyl-5-(3-(prop-2-yn-1-yloxy)benzamido)-1H-pyrazol-3-yl)phenyl)benz-amide] | 0.012 | 0.03 | 0.07 | 0.07 |  |  |  |  | 
14 | Cn1nc(-c2ccc(NC(=O)c3ccccn3)cc2)cc1NC(=O)c1ccccc1 [SW393126, N-(4-(5-benzamido-1-methyl-1H-pyrazol-3-yl)phenyl)picolinamide] | 3.32 | 7.17 | 25.8 | 32.9 |  |  |  |  | 
15 | Cn1nc(-c2ccc(NC(=O)c3ccccc3Cl)cc2)cc1NC(=O)c1ccc(C2(C(F)(F)F)N=N2)cc1 [SW393142, 2-Chloro-N-(4-(1-methyl-5-(4-(3-(trifluoromethyl)-3H-diazirin-3-yl)benzamido)-1H-pyrazol-3-yl)phenyl)benzamide] |  |  |  |  |  | 3.6 | 1.59 | 3.41 | 3.22

Now from value to molecule, other results behind:

Row | IC50 (HCT116 WT; [1]) [µM] | IC50 (HCT116 WT; [2]) [µM] | IC50 (HCT116 WT; [3]) [µM] | IC50 (HCT116 GCN2KO; [4]) [µM] | HCT116 IC50 (uM) HCT116 WT (HCT116 WT; wild type HCT116, 10-point dose response in triplicate, multiple values = separate independent experiments) | Structure (SMILES) | IC50 (HCT116 WT; Homo sapiens, HCT-116, read-out: HCT116 IC50 (uM) HCT116 WT) [µM] | IC50 (HCT116 WT; Homo sapiens, HCT-116, read-out: HCT116 IC50 (uM) HCT116 WT (repeat)) [µM] | IC50 (HCT116 WT; read-out: HCT116 IC50 (uM) HCT116 WT + ISRIB, wild type HCT116, compound plus 10 nM of ISRIB) [µM] | IC50 (HCT116 GCN2KO; HCT-116, read-out: HCT116 IC50 (uM) HCT116 − GCN2KO) [µM]
16 | 0.5 | 1.46 | 7.5 | 6.64 |  | Cn1nc(-c2ccc(NC(=O)c3cccnc3)cc2)cc1NC(=O)c1ccccc1 [SW393127, N-(4-(5-benzamido-1-methyl-1H-pyrazol-3-yl)phenyl)nicotinamide] |  |  |  | 
17 | 0.2 | 0.48 | 3.73 | 4.05 |  | Cn1nc(-c2ccc(NC(=O)c3ccccc3)cc2)cc1NC(=O)c1cccnc1 [SW393128, N-(3-(4-benzamidophenyl)-1-methyl-1H-pyrazol-5-yl)nicotinamide] |  |  |  | 
18 | 0.95 | 2.11 | 4.03 | 4.72 |  | Cn1nc(-c2ccc(NC(=O)c3ccccc3)cc2)cc1NC(=O)c1ccncc1 [SW393129, N-(3-(4-benzamidophenyl)-1-methyl-1H-pyrazol-5-yl)isonicotinamide] |  |  |  | 
19 | 0.92 | 1.87 |  | ≥ 50 |  | COC(=O)c1ccc(C(=O)Nc2cc(-c3ccc(NC(=O)c4ccccc4)cc3)nn2C)cc1 [SW393130, methyl 4-((3-(4-benzamidophenyl)-1-methyl-1H-pyrazol-5-yl)carbamoyl)benzoate] |  |  |  | 
20 | > 50 | ≥ 50 |  | ≥ 50 |  | Cn1nc(-c2ccc(NC(=O)c3ccccc3)cc2)cc1NC(=O)c1ccc(Cl)cc1 [SW393132, N-(3-(4-benzamidophenyl)-1-methyl-1H-pyrazol-5-yl)-4-chlorobenzamide] |  |  |  | 
21 | 0.01 | 0.03 | 0.3 | 0.21 |  | Cn1nc(-c2ccc(NC(=O)c3ccccc3Br)cc2)cc1NC(=O)c1ccccc1 [SW393133, N-(4-(5-benzamido-1-methyl-1H-pyrazol-3-yl)phenyl)-2-bromobenzamide] |  |  |  | 
22 | 0.012 | 0.02 | 0.19 | 0.17 |  | Cc1ccccc1C(=O)Nc1ccc(-c2cc(NC(=O)c3ccccc3)n(C)n2)cc1 [SW393134, N-(4-(5-benzamido-1-methyl-1H-pyrazol-3-yl)phenyl)-2-methylbenzamide] |  |  |  | 
23 | 0.12 | 0.3 | 0.41 | 0.49 |  | C#CCOc1ccc(C(=O)c2cccc(C(=O)Nc3cc(-c4ccc(NC(=O)c5ccccc5Cl)cc4)nn3C)c2)cc1 [SW393141, 2-Chloro-N-(4-(1-methyl-5-(3-(4-(prop-2-yn-1-yloxy)benzoyl)benzamido)-1H-pyrazol-3-yl)phenyl)benzamide] |  |  |  | 
24 | 0.01 | 0.02 | 0.14 | 0.12 |  | Cn1nc(-c2ccc(NC(=O)c3ccccc3[N+](=O)[O-])cc2)cc1NC(=O)c1ccccc1 [SW393143, N-(4-(5-benzamido-1-methyl-1H-pyrazol-3-yl)phenyl)-2-nitrobenzamide] |  |  |  | 
25 | 0.13 | 0.43 | 2.55 | 2.31 |  | Cn1nc(-c2ccc(NC(=O)c3c(Cl)cccc3Cl)cc2)cc1NC(=O)c1ccccc1 [SW393144, N-(4-(5-benzamido-1-methyl-1H-pyrazol-3-yl)phenyl)-2,6-dichlorobenzamide] |  |  |  | 
26 | 0.34 | 1.02 | 3.23 | 2.95 |  | C#CCOc1ccccc1C(=O)Nc1ccc(-c2cc(NC(=O)c3ccccc3)n(C)n2)cc1 [SW393168, N-(4-(5-benzamido-1-methyl-1H-pyrazol-3-yl)phenyl)-2-(prop-2-yn-1-yloxy)benzamide] |  |  |  | 
27 | 0.01 | 0.06 | 0.49 | 0.41 |  | CSc1ccccc1C(=O)Nc1ccc(-c2cc(NC(=O)c3ccccc3)n(C)n2)cc1 [SW393169, N-(4-(5-benzamido-1-methyl-1H-pyrazol-3-yl)phenyl)-2-(methylthio)benzamide] |  |  |  | 
28 | 0.03 | 0.12 | 0.84 | 0.93 |  | Cn1nc(-c2ccc(NC(=O)c3ccccc3N=[N+]=[N-])cc2)cc1NC(=O)c1ccccc1 [SW393170, N-(4-(5-benzamido-1-methyl-1H-pyrazol-3-yl)phenyl)-2-azidobenzamide] |  |  |  | 
